Measurements taken from patent US8188059B2, “Compounds and methods for modulating expression of GCGR” (Isis Pharmaceuticals, Inc., priority 2006, dated 2012).
Strand notation (5' to 3'): a small letter for the sugar, then the base; units joined by * are phosphorothioate-linked, units joined directly phosphodiester-linked; [ ] holds rarer units or linkages, { } end groups; capitals alone tell only the bases. e = 2'-O-(2-methoxyethyl) (MOE); [5mC] = 5-methylcytosine; d = 2'-deoxy (DNA)

Legend:
SGLT2 mRNA = SGLT2 mRNA levels in kidney of Balb/c mice, twenty 1-10-1 MOE gapmers at 350 nmol/kg, PPS 534 and PPS 553 (Example 18, Table 74); assay type: in vivo, mouse; conditions: 350 nmol/kg i.p. twice per week for two weeks
Description: Twenty 1-10-1 MOE gapmers that are complementary to human/monkey/mouse/rat SGLT2 were designed, synthesized and tested in vivo for suppression of SGLT2 mRNA levels in kidney. Data are averages from two experiments in which male 6-week old Balb/c mice were administered intraperitoneal injections of 350 nmol/kg of oligonucleotide, twice per week, over a period of two weeks (a total of four injections). Mice were sacrificed 48 hours following the last administration and evaluated for SGLT2 mRNA levels in kidney. SGLT2 mRNA levels were determined by quantitative real-time PCR analysis according to standard procedures, using two different PCR primer probe sets, primer probe set (PPS) 534 and PPS 553. SGLT2 mRNA levels were normalized to cyclophilin mRNA levels, which were also measured by quantitative real-time PCR.

PTP1B mRNA [1] = experiment: Dose response for human PTP1B in HuVEC cells, Primer Probe Set 198 (Example 25, Table 86); assay type: cell-based
Description: (§1) Human vascular endothelial (HuVEC) cells were plated at a density of 5000 cells per well and treated as described herein with nM concentrations of short antisense compound as indicated in Table 86. After the treatment period, RNA was isolated from the cells and PTP1B mRNA levels were measured by quantitative real-time PCR, as described herein. PTP1B mRNA levels were adjusted according to total RNA content as measured by RIBOGREEN®. Two different human PTP1B primer probe sets were used to measure mRNA levels. Results with Primer Probe Set (PPS) 198 are shown in Table 86, and results with Primer Probe Set (PPS) 3000 are shown in Table 87. Results are presented as percent inhibition of PTP1B mRNA expression relative to untreated control cells.

PTP1B mRNA [2] = experiment: Dose response for human PTP1B in HuVEC cells, Primer Probe Set 3000 (Example 25, Table 87); assay type: cell-based
Description: as §1

PCSK9 mRNA [3] = experiment: Dose-dependent inhibition of PCSK9 in Hep3B cells with EC50 (Example 19, Table 76); assay type: cell-based, human
Description: Short antisense compounds targeted to a PCSK9 nucleic acid were tested in a dose response experiment Hep3B cells. After the treatment period, RNA was isolated from the cells and PCSK9 mRNA levels were measured by quantitative real-time PCR, as described herein. PCSK9 mRNA levels were normalized to cyclophilin mRNA levels, as measured by real-time PCR using a cyclophilin-specific primer probe set. Results are presented as percent inhibition of PCSK9, relative to untreated control cells. […] As illustrated in the following table, PCSK9 mRNA levels were reduced in a dose-dependent manner.

PCSK9 mRNA [4] = assay type: cell-based, human; conditions: Hep3B cells, 100 nM, relative to untreated control cells; for % Inhib (PCSK9 mRNA): 0 = no reduction observed
Description: When cells reached appropriate confluency, they were treated with oligonucleotide using LIPOFECTIN® as described. […] Cells were treated and data were obtained in duplicate or triplicate. […] Cells were harvested 16-24 hours after oligonucleotide treatment.
Short antisense compounds targeted to a PCSK9 nucleic acid were tested for their effects on PCSK9 mRNA in vitro. The Isis No, gapmer motif and SEQ ID NO of each short antisense compound are shown again in Table 75. Cultured Hep3B cells were treated with 100 nM of short antisense compound. 5-10-5 MOE gapmers targeted to a PCSK9 nucleic acid were used as positive controls. After the treatment period, RNA was isolated from the cells and PCSK9 mRNA levels were measured by quantitative real-time PCR, as described herein. PCSK9 mRNA levels were adjusted according to total RNA content as measured by RIBOGREEN®. Results are presented in Table 75 as percent inhibition of PCSK9 (% Inhib), relative to untreated control cells.

Row | Substance | SGLT2 mRNA in kidney, % change relative to saline (SGLT2 mRNA; primer probe set 534) | SGLT2 mRNA in kidney, % change relative to saline (SGLT2 mRNA; primer probe set 553) | % Inhibition of PCSK9 (PCSK9 mRNA [3]; 5 nM) | % Inhibition of PCSK9 (PCSK9 mRNA [3]; 10 nM) | % Inhibition of PCSK9 (PCSK9 mRNA [3]; 20 nM) | % Inhibition of PCSK9 (PCSK9 mRNA [3]; 40 nM) | % Inhibition of PCSK9 (PCSK9 mRNA [3]; 80 nM) | % Inhibition of PCSK9 (PCSK9 mRNA [3]; 160 nM) | % Inhibition Range (PCSK9 mRNA) (PCSK9 mRNA [4]) | % Inhib (PCSK9 mRNA) (PCSK9 mRNA [4]) | also measured
1 | 370717 (antisense eT*dA*dG*d[5mC]*d[5mC]*dA*d[5mC]*d[5mC]*dA*dA*d[5mC]*eT) [compound 370717] | −84.4% | −84.3% |  |  |  |  |  |  |  |  | 
2 | 379684 (antisense eT*dG*dT*d[5mC]*dA*dG*d[5mC]*dA*dG*dG*dA*eT) [compound 379684] | −45.0% | −43.2% |  |  |  |  |  |  |  |  | 
3 | 379685 (antisense eT*dG*dA*d[5mC]*d[5mC]*dA*dG*d[5mC]*dA*dG*dG*eA) [compound 379685] | −10.3% | −20.5% |  |  |  |  |  |  |  |  | 
4 | 379686 (antisense eA*d[5mC]*d[5mC]*dA*d[5mC]*dA*dA*dG*d[5mC]*d[5mC]*dA*eA) [compound 379686] | −71.9% | −75.1% |  |  |  |  |  |  |  |  | 
5 | 379687 (antisense eG*dA*dT*dG*dT*dT*dG*d[5mC]*dT*dG*dG*e[5mC]) [compound 379687] | −47.1% | −52.1% |  |  |  |  |  |  |  |  | 
6 | 379688 (antisense e[5mC]*d[5mC]*dA*dA*dG*d[5mC]*d[5mC]*dA*d[5mC]*dT*dT*eG) [compound 379688] | −62.6% | −70.4% |  |  |  |  |  |  |  |  | 
7 | 379689 (antisense eA*dG*dA*dG*d[5mC]*dG*d[5mC]*dA*dT*dT*d[5mC]*e[5mC]) [compound 379689] | −17.5% | −30.4% |  |  |  |  |  |  |  |  | 
8 | 379690 (antisense eA*d[5mC]*dA*dG*dG*dT*dA*dG*dA*dG*dG*e[5mC]) [compound 379690] | −18.9% | −22.5% |  |  |  |  |  |  |  |  | 
9 | 379691 (antisense eA*dG*dA*dT*d[5mC]*dT*dT*dG*dG*dT*dG*eA) [compound 379691] | −35.0% | −48.6% |  |  |  |  |  |  |  |  | 
10 | 379692 (antisense eT*dG*dT*dT*d[5mC]*d[5mC]*dA*dG*d[5mC]*d[5mC]*d[5mC]*eA) [compound 379692] | −88.1% | −88.5% |  |  |  |  |  |  |  |  | 
11 | 379693 (antisense e[5mC]*dA*dT*dG*dG*dT*dG*dA*dT*dG*d[5mC]*e[5mC]) [compound 379693] | −51.6% | −59.9% |  |  |  |  |  |  |  |  | 
12 | 399208 (antisense eA*eG*d[5mC]*dT*d[5mC]*dG*d[5mC]*dT*dA*d[5mC]*d[5mC]*dT*e[5mC]*eT) [compound 399208] |  |  |  |  |  |  |  |  |  |  | % Inhibition of PTP1B mRNA (PTP1B mRNA [1]; PPS 198, 1.11 nM): 0%; % Inhibition of PTP1B mRNA (PTP1B mRNA [1]; PPS 198, 3.33 nM): 37%; % Inhibition of PTP1B mRNA (PTP1B mRNA [1]; PPS 198, 10.0 nM): 86%; % Inhibition of PTP1B mRNA (PTP1B mRNA [1]; PPS 198, 30.0 nM): 93%; % Inhibition of PTP1B mRNA (PTP1B mRNA [2]; PPS 3000, 1.11 nM): 0%; % Inhibition of PTP1B mRNA (PTP1B mRNA [2]; PPS 3000, 3.33 nM): 47%; % Inhibition of PTP1B mRNA (PTP1B mRNA [2]; PPS 3000, 10.0 nM): 85%; % Inhibition of PTP1B mRNA (PTP1B mRNA [2]; PPS 3000, 30.0 nM): 96%
13 | 399276 (antisense eG*eA*dG*dG*dT*dA*dT*d[5mC]*d[5mC]*d[5mC]*dA*dT*e[5mC]*eT) [compound 399276] |  |  |  |  |  |  |  |  |  |  | % Inhibition of PTP1B mRNA (PTP1B mRNA [1]; PPS 198, 1.11 nM): 0%; % Inhibition of PTP1B mRNA (PTP1B mRNA [1]; PPS 198, 3.33 nM): 8%; % Inhibition of PTP1B mRNA (PTP1B mRNA [1]; PPS 198, 10.0 nM): 61%; % Inhibition of PTP1B mRNA (PTP1B mRNA [1]; PPS 198, 30.0 nM): 89%; % Inhibition of PTP1B mRNA (PTP1B mRNA [2]; PPS 3000, 1.11 nM): 0%; % Inhibition of PTP1B mRNA (PTP1B mRNA [2]; PPS 3000, 3.33 nM): 14%; % Inhibition of PTP1B mRNA (PTP1B mRNA [2]; PPS 3000, 10.0 nM): 64%; % Inhibition of PTP1B mRNA (PTP1B mRNA [2]; PPS 3000, 30.0 nM): 86%
14 | 399315 (antisense eG*eG*d[5mC]*dA*dA*d[5mC]*dT*dT*d[5mC]*dA*dA*d[5mC]*e[5mC]*eT) [compound 399315] |  |  |  |  |  |  |  |  |  |  | % Inhibition of PTP1B mRNA (PTP1B mRNA [1]; PPS 198, 1.11 nM): 0%; % Inhibition of PTP1B mRNA (PTP1B mRNA [1]; PPS 198, 3.33 nM): 20%; % Inhibition of PTP1B mRNA (PTP1B mRNA [1]; PPS 198, 10.0 nM): 68%; % Inhibition of PTP1B mRNA (PTP1B mRNA [1]; PPS 198, 30.0 nM): 88%; % Inhibition of PTP1B mRNA (PTP1B mRNA [2]; PPS 3000, 1.11 nM): 0%; % Inhibition of PTP1B mRNA (PTP1B mRNA [2]; PPS 3000, 3.33 nM): 25%; % Inhibition of PTP1B mRNA (PTP1B mRNA [2]; PPS 3000, 10.0 nM): 71%; % Inhibition of PTP1B mRNA (PTP1B mRNA [2]; PPS 3000, 30.0 nM): 93%
15 | 400307 (e[5mC]*eG*dG*d[5mC]*d[5mC]*dG*d[5mC]*dT*dG*dA*d[5mC]*d[5mC]*eA*e[5mC]; antisense) [compound 400307] |  |  | 35% | 39% | 45% | 56% | 92% | 93% | 70-80% | 76% | 
16 | 400308 (e[5mC]*e[5mC]*dG*dG*d[5mC]*d[5mC]*dG*d[5mC]*dT*dG*dA*d[5mC]*e[5mC]*eA; antisense) [compound 400308] |  |  | 31% | 10% | 26% | 40% | 77% | 86% | 50-60% | 55% | 
17 | 400309 (e[5mC]*e[5mC]*d[5mC]*dG*dG*d[5mC]*d[5mC]*dG*d[5mC]*dT*dG*dA*e[5mC]*e[5mC]; antisense) [compound 400309] |  |  | 49% | 23% | 38% | 12% | 72% | 78% | 40-50% | 44% | 
18 | 400327 (eG*eT*d[5mC]*d[5mC]*d[5mC]*d[5mC]*dA*dA*dA*dG*dT*d[5mC]*e[5mC]*e[5mC]; antisense) [compound 400327] |  |  | 5% | 37% | 23% | 49% | 43% | 55% | 30-40% | 36% | 
19 | 400330 (e[5mC]*e[5mC]*dA*d[5mC]*dG*dT*dG*dG*dG*d[5mC]*dA*dG*e[5mC]*eA; antisense) [compound 400330] |  |  | 8% | 32% | 40% | 69% | 82% | 71% | 40-50% | 43% | 
20 | 400331 (eG*e[5mC]*d[5mC]*dA*d[5mC]*dG*dT*dG*dG*dG*d[5mC]*dA*eG*e[5mC]; antisense) [compound 400331] |  |  | 29% | 40% | 47% | 63% | 75% | 82% | 30-40% | 35% | 
21 | 400352 (antisense e[5mC]*eA*d[5mC]*d[5mC]*d[5mC]*dT*d[5mC]*dA*d[5mC]*d[5mC]*d[5mC]*d[5mC]*e[5mC]*eA) [compound 400352] |  |  | 7% | 16% | 40% | 44% | 63% | 64% | 20-30% | 29% | 
22 | 400353 (antisense eA*e[5mC]*dA*d[5mC]*d[5mC]*d[5mC]*dT*d[5mC]*dA*d[5mC]*d[5mC]*d[5mC]*e[5mC]*e[5mC]) [compound 400353] |  |  | 15% | 27% | 23% | 43% | 54% | 48% | 10-20% | 19% | 
